From patent EP0197829A1, “5H-pyrido[3',4':4,5]pyrrolo[3,2-c]pyridine derivatives, process for their preparation and their antitunour activity” (SANOFI, priority 1985, dated 1986)
“And” between values parts separate entries of the source, which are not always exact repeats. Equal values may be shown once. Read-outs that look alike come from different tables or passages of the source.

Columns and labels:
[1] = test system: mélanome B 16; assay: B 16 melanoma test in vivo; design: species or system souris hybrides BDF1; Jour médian de survie: unit not given here; conditions: for Survivants: at day J 60
Source text: (§1) L'activité antitumorale a été testée in vivo sur différentes tumeurs selon le protocole général suivant : Toutes les souris mâles ou femelles sont inoculées par voie intrapéritonéale au jour Jo avec une quantité déterminée de cellules tumorales viables, variable selon la tumeur.
(§2) Elles sont ensuite réparties en différents lots. Chaque lot correspondant aux animaux traités par le produit à tester à une dose déterminée est composé de lO souris. Dans ce cas, le produit à tester est dissous dans l'eau distillée et il est administré, pendant n jours (J1-Jn) variables selon le protocole choisi, par voie intrapéritonéale à raison de 0,1 ml par lO g de poids des souris traitées, les doses du produit administré étant précisées dans les tableaux ci-dessous.
(§3) Le lot "Contrôle négatif", correspondant aux animaux qui ne sont pas traités par un produit, comprend 2 √N animaux, N étant égal au nombre total de souris traitées par un produit.
(§4) Enfin, tous lés essais sont conduits parallèlement à l'étude d'un lot appelé "Contrôle positif" de 10 animaux qui est traité par une molécule active, variable selon le protocole choisi, dans les mêmes conditions que les lots traités par le produit à tester, afin de valider l'essai.
(§5) L'activité antitumorale est évaluée en considérant l'augmentation du temps de survie des animaux traités par rapport à celui des animaux du lot "Contrôle négatif" selon la formule : • Jour médian de survie des animaux traités à une T/C = dose donnée de produit x 100 • Jour médian de survie des animaux "Contrôle négatif"
(§6) Un composé est considéré comme étant actif lorsque la valeur du rapport T/C est égale ou supérieure à 125 % selon le protocole retenu. Il est toxique lorsque cette valeur est égale ou inférieure à 85 %. Le produit est également considéré comme toxique lorsque la variation pondérale, exprimée en grammes et calculée par la formule : Poids moyen du lot mesuré au jour 5 - poids moyen du même lot au jour 1, est égale ou inférieure à -4g . a) Test de la leucémie P 388 (GERAN et al., Cancer Chemother, 1972, 2, 07-57).
c) Test du mélanome B 16 (GERAN et al., Cancer Chemother, 1972, 2, 07-57).
Les essais sont effectués avec des souris hybrides BDF1 inoculées avec O,5 ml d'un homogénat de mélanome B 16 réalisé à partir de 1 g de tumeur dans 10 ml de sérum physiologique. Le composé à tester est administré pendant 9 jours (J1-J9). Le contrôle positif du test est le Cis- platine administré dans les mêmes conditions. Le nombre d'animaux survivants est évalué au jour J 60. Un composé est considéré comme étant actif lorsque le rapport T/C est supérieur ou égal à 125 %.

[2] = in vivo; design: species or system souris; conditions: mouse, ip
Description: Ainsi, l'administration à des souris hybrides CDF1 saines, en une injection unique par la voie intrapéritonéale, de doses croissantes des composés à tester (5 mg, 10 mg, 20 mg, 40 mg/kg) a permis de constater que, à ces doses, les produits étaient parfaitement tolérés puisque le taux de survivants était de 100 p. 100.
Dans les mêmes conditions, administrés à des souris BDF1 saines, les taux de survivants étaient de 100 p. 100 jusqu'à 100 mg/kg pour les dérivés 1, 3 et 9 et jusqu'à 200 mg/kg pour les dérivés 2 et 8.

[3] = test system: lignée tumorale leucémie L 1210; assay: In vitro cytotoxicity on L 1210 leukemia cell culture; format: cell-based; conditions: Mus musculus, L1210; concentration inhibiting cell proliferation by 50 p. 100, after 48 h contact; read-out: ID 50 (the source's name)
Description: 1) In vitro : (PAOLETTI et al., Chem. Biol. Interaction, 1979, 25, 45-58).
L'activité cytotoxique des composés de l'invention a été évaluée par des essais in vitro. Ces essais consistent à ajouter des concentrations croissantes du composé à tester à une culture cellulaire de la lignée tumorale leucémie L 1210 en phase exponentielle de croissance. Les cellules sont incubées à 37°C dans une étuve à C02 et comptées toutes les 24 heures. Le calcul de l'ID 50 (concentration du produit exprimée en micromole 1^-1 qui inhibe la prolifération cellulaire à 50 p. 100) est effectué après 48 heures de contact. Ainsi déterminées, les ID 50 des composés de l'invention sont rassemblées dans le tableau I ci-après : […]

[4] = test system: leucémie P 388; format: in vivo, souris hybrides CDF1
Source text: as §1, §2, §3, §4, §5, §6
Les essais sont effectués avec des souris hybrides CDF1 inoculées par voie intrapéritonéale avec […] leucémiques de la lignée P 388. Le composé à tester est administré pendant 5 jours (Jl-J5). Le contrôle positif du test est le 5-fluorouracile qui est administré dans les mêmes conditions.
[…] Un composé est considéré comme étant actif lorsque le rapport T/C est supérieur à 127 %.

[5] = test system: leucémie L 1210; assay: L 1210 leukemia test in vivo; design: species or system souris hybrides CDF1; conditions: 20 mg/kg i.p. J1-J5
Source text: as §1, §2, §3, §4, §5, §6
b) Test de la leucémie L 1210 (GERAN et al., Cancer Chemother, 1972, 2, 07-57).
Les essais sont effectués avec des souris hybrides CDF1 inoculées avec 10^5 cellules leucémiques de la lignée L 1210. Le composé à tester est administré pendant 5 jours (J1-J5). Le contrôle positif du test est le 5-fluorouracile administré dans les mêmes conditions. Le nombre d'animaux survivants est évalué au jour J 60. Un composé est considéré comme étant actif lorsque le rapport T/C est supérieur ou égal à 125 %.

[6] = test system: réticulosarcome M5-M5076; assay: M5-M5076 reticulosarcoma test in vivo; design: species or system souris hybrides BDF1; conditions: 160 mg/kg i.p. J1, 5, 9, 13, 17
Source text: as §1, §2, §3, §4, §5, §6
d) Test du réticulosarcome M5-M5076.
Les essais sont effectués avec des souris hybrides BDF1 inoculées avec 10^6 cellules de la lignée M5-M5076. Le composé à tester est administré 5 fois successivement de façon séquentielle (Jl, 5, 9, 13, 17). Le contrôle positif du test est le cyclophosphamide administré dans les mêmes conditions. Le nombre d'animaux survivants est évalué au jour J 75. Un composé est considéré comme actif lorsque le rapport T/C est supérieur ou égal à 125 %.

[7] = 5 mg/kg i.p. J1-J5, at day J 40
[8] = 10 mg/kg i.p. J1-J5, at day J 40
[9] = 20 mg/kg i.p. J1-J5, at day J 40
[10] = 40 mg/kg i.p. J1-J5, at day J 40
[11] = 80 mg/kg i.p. J1-J5, at day J 40

[NH2][Pt]([NH2])([Cl])[Cl] [Cis-platine, reference compound]
Jour médian de survie ([1]; 0,5 mg/kg i.p. J1-J9): 30 and 31,0 and 40,0 | T/C % ([1]; 0,5 mg/kg i.p. J1-J9): 126% and 133% and 141% | Survivants ([1]; 0,5 mg/kg i.p. J1-J9): 0

Cc1cnc(NCCNCCO)c2c1[nH]c1ccncc12 [Dérivé N° 2, [[[(hydroxy-2 éthyl-l)amino]-2 éthyl-1]-amino]-1 méthyl-4 5-H pyrido[3',4':4,5]pyrrolo[3,2-c]pyridine]
survival ([2]; 200 mg/kg): 100%

CCN(CC)CCCCNc1ncc(C)c2c1c1cnccc1n2C [Dérivé N° 10, [(diéthylamino-4 butyl-1)amino]-1 diméthyl-4,5 5-H pyrido[3',4':4,5]pyrrolo[3,2-c]pyridine]
IC50 [3]: 2 µM

CCCN(CCC)CCCNc1ncc(C)c2c1c1cnccc1n2C [Dérivé N° 13, diméthyl-4,5[(dipropylamino-3 propyl-1)ami-no]-l 5-H pyrido[3',4':4,5]pyrrolo[3,2-c]pyridine]
IC50 [3]: 3.2 µM

Cc1cnc(NCCCN(C)C)c2c3cnccc3n(C)c12 [Dérivé N° 9, diméthyl-4,5 [(diméthylamino-3 propyl-1)-amino]-1 5-H pyrido[3',4':4,5]pyrrolo[3,2-c]pyridine]
IC50 [3]: 0.3 µM | survival ([2]; 100 mg/kg): 100% | Jour médian de survie ([4]; 5 mg/kg i.p. J1-J5): 15,75 | T/C % ([4]; 5 mg/kg i.p. J1-J5): 136% | Survivants [4, 7]: 0 | Jour médian de survie ([4]; 10 mg/kg i.p. J1-J5): 17,38 | T/C % ([4]; 10 mg/kg i.p. J1-J5): 150% | Survivants [4, 8]: 0 | Jour médian de survie ([4]; 20 mg/kg i.p. J1-J5): 19,33 | T/C % ([4]; 20 mg/kg i.p. J1-J5): 167% | Survivants [4, 9]: 0 | Jour médian de survie ([4]; 40 mg/kg i.p. J1-J5): 20,0 | T/C % ([4]; 40 mg/kg i.p. J1-J5): 173% | Survivants [4, 10]: 0 | Jour médian de survie ([4]; 80 mg/kg i.p. J1-J5): 8,25 | T/C % ([4]; 80 mg/kg i.p. J1-J5): 71% | Survivants [4, 11]: 0

CCN(CC)CCCNc1ncc(C)c2[nH]c3ccncc3c12 [Dérivé N° 1, [(diéthylamino-3 propyl-1)amino]-1 méthyl-4 5-H pyrido[3',4':4,5]pyrrolo[3,2-c]pyridine]
IC50 [3]: 0.34 µM | survival ([2]; 100 mg/kg): 100% | Jour médian de survie ([4]; 5 mg/kg i.p. J1-J5): 14,1 | T/C % ([4]; 5 mg/kg i.p. J1-J5): 132% | Survivants [4, 7]: 0/10 | Jour médian de survie ([4]; 10 mg/kg i.p. J1-J5): 14,6 | T/C % ([4]; 10 mg/kg i.p. J1-J5): 136% | Survivants [4, 8]: 0/10 | Jour médian de survie ([4]; 20 mg/kg i.p. J1-J5): 15,9 | T/C % ([4]; 20 mg/kg i.p. J1-J5): 148% | Survivants [4, 9]: 0/10 | Jour médian de survie ([4]; 40 mg/kg i.p. J1-J5): 16,6 | T/C % ([4]; 40 mg/kg i.p. J1-J5): 155% | Survivants [4, 10]: 0/10 | Jour médian de survie ([4]; 50 mg/kg i.p. J1-J5): 3,1 | T/C % ([4]; 50 mg/kg i.p. J1-J5): 26% | Survivants ([4]; 50 mg/kg i.p. J1-J5, at day J 40): 0/10 | Jour médian de survie ([1]; 5 mg/kg i.p. J1-J9): 28,25 | T/C % ([1]; 5 mg/kg i.p. J1-J9): 119% | Survivants ([1]; 5 mg/kg i.p. J1-J9): 0 | Jour médian de survie ([1]; 10 mg/kg i.p. J1-J9): 30,0 | T/C % ([1]; 10 mg/kg i.p. J1-J9): 126% | Survivants ([1]; 10 mg/kg i.p. J1-J9): 0 | Jour médian de survie ([1]; 20 mg/kg i.p. J1-J9): 34,25 | T/C % ([1]; 20 mg/kg i.p. J1-J9): 144% | Survivants ([1]; 20 mg/kg i.p. J1-J9): 0

O=c1[nH]cc(F)c(=O)[nH]1 [Fluorouracile, 5-fluorouracile, reference compound]
Jour médian de survie [5]: 16,0 and 18 | T/C % [5]: 178% and 195% | Survivants ([5]; at day J 60): 0 | Survivants [4, 9]: 0/10 and 0

Cc1cnc(NCCCN(C)C)c2c1[nH]c1ccncc12 [Dérivé N° 3 bis, [(diméthylamino-3 propyl-1)amino]-1 méthyl-4 5-H pyrido[3',4':4,5]pyrrolo[3,2-c]pyridine]
IC50 [3]: 0.16 µM | Jour médian de survie ([4]; 5 mg/kg i.p. J1-J5): 15,83 | T/C % ([4]; 5 mg/kg i.p. J1-J5): 145% | Survivants [4, 7]: 0/10 | Jour médian de survie ([4]; 10 mg/kg i.p. J1-J5): 17,13 | T/C % ([4]; 10 mg/kg i.p. J1-J5): 156% | Survivants [4, 8]: 0/10 | Jour médian de survie ([4]; 20 mg/kg i.p. J1-J5): 20,33 | T/C % ([4]; 20 mg/kg i.p. J1-J5): 186% | Survivants [4, 9]: 0/10 | Jour médian de survie ([4]; 40 mg/kg i.p. J1-J5): 20,25 | T/C % ([4]; 40 mg/kg i.p. J1-J5): 184% | Survivants [4, 10]: 0/10 | Jour médian de survie ([4]; 50 mg/kg i.p. J1-J5): 22 | T/C % ([4]; 50 mg/kg i.p. J1-J5): 181% | Survivants ([4]; 50 mg/kg i.p. J1-J5, à J 42): 1/10 à J 42 | Jour médian de survie ([4]; 80 mg/kg i.p. J1-J5): 19,88 | T/C % ([4]; 80 mg/kg i.p. J1-J5): 181% | Survivants [4, 11]: 0/10

CCCN(CCC)CCCNc1ncc(C)c2[nH]c3ccncc3c12 [Dérivé N° 12, [(dipropylamino-3 propyl-1)amino]-1 méthyl-4 5-H pyrido[3',4':4,5]pyrrolo[3,2-c]pyridine]
IC50 [3]: 8.5 µM

CCN(CC)CCCNc1ncc(C)c2c1c1cnccc1n2CC [Dérivé N° 5, [(diéthylamino-3 propyl-1)amino]-1 méthyl-4 éthyl-5 5-H pyrido[3',4':4,5]pyrrolo[3,2-c]pyridine]
IC50 [3]: 1.4 µM

O=P1(N(CCCl)CCCl)NCCCO1 (centres unmarked) [Cyclophosphamide, cyclophosphamide, reference compound]
Jour médian de survie [6]: > 60 and > 71 | T/C % [6]: >229% and >246% | Survivants ([6]; at day J 75): 9 and 6
